What was measured:
Glucagon receptor = Glucagon receptor (Homo sapiens, UniProt P47871); experiment: Agonist activity at human GCGR expressed in frozen cells assessed as increase in cAMP production measured after 1 hr by HitHunter luminescence assay; assay type: functional, cell-based
[1] = target: Glucagon-like peptide 1 receptor (Homo sapiens, UniProt P43220); experiment: Agonist activity at human GLP1R expressed in frozen cells assessed as increase in cAMP production measured after 1 hr by HitHunter luminescence assay; assay type: functional, cell-based
Chain of Glucagon-like peptide 1 receptor (P43220 whole entry): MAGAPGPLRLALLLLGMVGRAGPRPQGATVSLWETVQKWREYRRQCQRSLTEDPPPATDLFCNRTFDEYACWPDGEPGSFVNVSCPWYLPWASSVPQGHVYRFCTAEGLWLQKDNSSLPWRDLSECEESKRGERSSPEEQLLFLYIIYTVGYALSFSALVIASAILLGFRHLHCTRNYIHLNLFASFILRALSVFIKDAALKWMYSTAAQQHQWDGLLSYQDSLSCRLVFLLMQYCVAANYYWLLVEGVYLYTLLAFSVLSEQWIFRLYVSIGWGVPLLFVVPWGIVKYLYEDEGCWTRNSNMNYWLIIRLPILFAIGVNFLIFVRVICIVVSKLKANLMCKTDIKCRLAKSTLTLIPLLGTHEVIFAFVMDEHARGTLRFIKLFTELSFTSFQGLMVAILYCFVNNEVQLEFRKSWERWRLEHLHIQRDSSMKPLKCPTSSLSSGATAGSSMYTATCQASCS

Homo sapiens = species on record: Homo sapiens; experiment: Selectivity ratio of EC50 for human GCGR expressed in frozen cells to EC50 for human GLP1R expressed in frozen cells; assay type: cell-based
[2] = Agonist activity at rhesus monkey GCGR; parameters: species or system Macaca mulatta
[3] = Agonist activity at rhesus monkey GLP1R; parameters: species or system Macaca mulatta
Macaca mulatta = species on record: Macaca mulatta; experiment: Selectivity ratio of EC50 for rhesus monkey GCGR to EC50 for rhesus monkey GLP1R

Chain of Glucagon receptor (P47871 whole entry): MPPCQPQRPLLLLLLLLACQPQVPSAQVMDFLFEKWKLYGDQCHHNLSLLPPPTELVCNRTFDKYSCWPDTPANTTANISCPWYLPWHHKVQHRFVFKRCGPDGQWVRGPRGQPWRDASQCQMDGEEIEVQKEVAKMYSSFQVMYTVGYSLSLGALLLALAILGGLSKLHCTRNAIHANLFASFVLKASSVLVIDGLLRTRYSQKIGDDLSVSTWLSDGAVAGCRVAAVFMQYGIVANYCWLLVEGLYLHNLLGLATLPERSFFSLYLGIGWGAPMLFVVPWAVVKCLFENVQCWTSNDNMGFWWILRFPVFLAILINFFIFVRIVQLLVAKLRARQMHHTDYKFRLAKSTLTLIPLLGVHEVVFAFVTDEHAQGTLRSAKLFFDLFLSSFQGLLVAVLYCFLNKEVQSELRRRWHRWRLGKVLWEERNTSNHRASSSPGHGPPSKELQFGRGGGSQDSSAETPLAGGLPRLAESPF

Compound | EC50 (Glucagon receptor) [nM] | EC50 [1] [nM] | EC50 [2] [nM] | EC50 [3] [nM] | Ratio EC50 (Macaca mulatta) | Ratio EC50 (Homo sapiens)
CCCCCCCCCCCCCCCC(=O)N[C@@H](CCC(=O)N[C@@H](CCC(=O)NCCCC[C@H](NC(=O)[C@H](CC(=O)O)NC(=O)[C@H](CO)NC(=O)[C@@H](NC(=O)[C@H](Cc1ccccc1)NC(=O)[C@@H](NC(=O)CNC(=O)[C@H](CCC(N)=O)NC(=O)C(C)(C)NC(=O)[C@@H](N)Cc1cnc[nH]1)[C@@H](C)O)[C@@H](C)O)C(=O)N[C@@H](CO)C(=O)N[C@@H](CCCCN)C(=O)N[C@@H](Cc1ccc(O)cc1)C(=O)N[C@@H](CC(C)C)C(=O)N[C@@H](CC(=O)O)C(=O)NC(C)(C)C(=O)N[C@@H](CCCNC(=N)N)C(=O)N[C@@H](CCCNC(=N)N)C(=O)N[C@@H](C)C(=O)N[C@@H](CCC(N)=O)C(=O)N[C@@H](CC(=O)O)C(=O)N[C@@H](Cc1ccccc1)C(=O)N[C@H](C(=O)N[C@@H](CCC(N)=O)C(=O)N[C@@H](Cc1c[nH]c2ccccc12)C(=O)N[C@@H](CC(C)C)C(=O)N[C@@H](CCSC)C(=O)N[C@@H](CC(N)=O)C(=O)N[C@H](C(N)=O)[C@@H](C)O)C(C)C)C(=O)O)C(=O)O | 0.035 | 0.02 | – | – | – | 1.8
GLUCAGON | – | – | 0.003 | 0.038 | – | –
CCCCCCCCCCCCCCCC(=O)N[C@@H](CCC(=O)N[C@@H](CCC(=O)NCCCC[C@H](NC(=O)[C@H](CC(=O)O)NC(=O)[C@H](CO)NC(=O)[C@@H](NC(=O)[C@H](Cc1ccccc1)NC(=O)[C@@H](NC(=O)CNC(=O)[C@H](CCC(N)=O)NC(=O)C(C)(C)NC(=O)[C@@H](N)Cc1cnc[nH]1)[C@@H](C)O)[C@@H](C)O)C(=O)N[C@@H](CO)C(=O)N[C@@H](CCCCN)C(=O)N[C@@H](Cc1ccc(O)cc1)C(=O)N[C@@H](CC(C)C)C(=O)N[C@@H](CC(=O)O)C(=O)NC(C)(C)C(=O)N[C@@H](CCCNC(=N)N)C(=O)N[C@@H](C)C(=O)N[C@@H](C)C(=O)N[C@@H](CCC(N)=O)C(=O)N[C@@H](CC(=O)O)C(=O)N[C@@H](Cc1ccccc1)C(=O)N[C@H](C(=O)N[C@@H](CCC(N)=O)C(=O)N[C@@H](Cc1c[nH]c2ccccc12)C(=O)N[C@@H](CC(C)C)C(=O)N[C@@H](CC(C)C)C(=O)N[C@@H](CC(N)=O)C(=O)N[C@H](C(=O)N[C@@H](CCCCNC(=O)CC[C@H](N)C(=O)O)C(N)=O)[C@@H](C)O)C(C)C)C(=O)O)C(=O)O | 0.058 | 0.029 | 0.334 | 0.14 | 2.4 | 2
CCCCCCCCCCCCCCCC(=O)N[C@@H](CCC(=O)N[C@@H](CCC(=O)NCCCC[C@H](NC(=O)[C@H](CC(=O)O)NC(=O)[C@H](CO)NC(=O)[C@@H](NC(=O)[C@H](Cc1ccccc1)NC(=O)[C@@H](NC(=O)CNC(=O)[C@H](CCC(N)=O)NC(=O)C(C)(C)NC(=O)[C@@H](N)Cc1cnc[nH]1)[C@@H](C)O)[C@@H](C)O)C(=O)N[C@@H](CO)C(=O)N[C@@H](CCCCN)C(=O)N[C@@H](Cc1ccc(O)cc1)C(=O)N[C@@H](CC(C)C)C(=O)N[C@@H](CC(=O)O)C(=O)NC(C)(C)C(=O)N[C@@H](CCCNC(=N)N)C(=O)N[C@@H](C)C(=O)N[C@@H](C)C(=O)N[C@@H](CCC(N)=O)C(=O)N[C@@H](CC(=O)O)C(=O)N[C@@H](Cc1ccccc1)C(=O)N[C@H](C(=O)N[C@@H](CCC(N)=O)C(=O)N[C@@H](Cc1c[nH]c2ccccc12)C(=O)N[C@@H](CC(C)C)C(=O)N[C@@H](CCSC)C(=O)N[C@@H](CC(=O)O)C(=O)N[C@H](C(=O)N[C@@H](CCCCNC(=O)CC[C@H](N)C(=O)O)C(N)=O)[C@@H](C)O)C(C)C)C(=O)O)C(=O)O | 0.048 | 0.022 | 0.064 | 0.007 | 9.1 | 2.1
CCCCCCCCCCCCCCCC(=O)N[C@@H](CCC(=O)N[C@@H](CCC(=O)NCCCC[C@H](NC(=O)[C@H](CC(=O)O)NC(=O)[C@H](CO)NC(=O)[C@@H](NC(=O)[C@H](Cc1ccccc1)NC(=O)[C@@H](NC(=O)CNC(=O)[C@H](CCC(N)=O)NC(=O)C(C)(C)NC(=O)[C@@H](N)Cc1cnc[nH]1)[C@@H](C)O)[C@@H](C)O)C(=O)N[C@@H](CO)C(=O)N[C@@H](CCCCN)C(=O)N[C@@H](Cc1ccc(O)cc1)C(=O)N[C@@H](CC(C)C)C(=O)N[C@@H](CC(=O)O)C(=O)NC(C)(C)C(=O)N[C@@H](CCCNC(=N)N)C(=O)N[C@@H](CCCNC(=N)N)C(=O)N[C@@H](C)C(=O)N[C@@H](CCC(N)=O)C(=O)N[C@@H](CC(=O)O)C(=O)N[C@@H](Cc1ccccc1)C(=O)N[C@H](C(=O)N[C@@H](CCC(N)=O)C(=O)N[C@@H](Cc1c[nH]c2ccccc12)C(=O)N[C@@H](CC(C)C)C(=O)N[C@@H](CCSC)C(=O)N[C@@H](CC(N)=O)C(=O)N[C@H](C(=O)N[C@@H](CCCCNC(=O)CC[C@H](N)C(=O)O)C(N)=O)[C@@H](C)O)C(C)C)C(=O)O)C(=O)O | 0.06 | 0.04 | – | – | – | 1.5
CCCCCCCCCCCCCCCC(=O)N[C@@H](CCC(=O)N[C@@H](CCC(=O)NCCCC[C@H](NC(=O)[C@H](CC(=O)O)NC(=O)[C@H](CO)NC(=O)[C@@H](NC(=O)[C@H](Cc1ccccc1)NC(=O)[C@@H](NC(=O)CNC(=O)[C@H](CCC(N)=O)NC(=O)C(C)(C)NC(=O)[C@@H](N)Cc1cnc[nH]1)[C@@H](C)O)[C@@H](C)O)C(=O)N[C@@H](CO)C(=O)N[C@@H](CCCCN)C(=O)N[C@@H](Cc1ccc(O)cc1)C(=O)N[C@@H](CC(C)C)C(=O)N[C@@H](CC(=O)O)C(=O)NC(C)(C)C(=O)N[C@@H](CCCNC(=N)N)C(=O)N[C@@H](CCCNC(=N)N)C(=O)N[C@@H](C)C(=O)N[C@@H](CCC(N)=O)C(=O)N[C@@H](CC(=O)O)C(=O)N[C@@H](Cc1ccccc1)C(=O)N[C@H](C(=O)N[C@@H](CCC(N)=O)C(=O)N[C@@H](Cc1c[nH]c2ccccc12)C(=O)N[C@@H](CC(C)C)C(=O)N[C@@H](CC(C)C)C(=O)N[C@@H](CC(N)=O)C(=O)N[C@H](C(=O)N[C@@H](CCCCNC(=O)CC[C@H](N)C(=O)O)C(N)=O)[C@@H](C)O)C(C)C)C(=O)O)C(=O)O | 0.006 | 0.005 | – | – | – | 1.2

Second part, led by results:

EC50 (Glucagon receptor) [nM] | EC50 [1] [nM] | EC50 [2] [nM] | EC50 [3] [nM] | Ratio EC50 (Macaca mulatta) | Compound | Ratio EC50 (Homo sapiens)
0.062 | – | 0.018 | 0.021 | 0.9 | CCCCCCCCCCCCCCCC(=O)N[C@@H](CCC(=O)N[C@@H](CCC(=O)NCCCC[C@H](NC(=O)[C@H](CC(=O)O)NC(=O)[C@H](CO)NC(=O)[C@@H](NC(=O)[C@H](Cc1ccccc1)NC(=O)[C@@H](NC(=O)CNC(=O)[C@H](CCC(N)=O)NC(=O)[C@@H](CO)NC(=O)[C@@H](N)Cc1cnc[nH]1)[C@@H](C)O)[C@@H](C)O)C(=O)N[C@@H](CO)C(=O)N[C@@H](CCCCN)C(=O)N[C@@H](Cc1ccc(O)cc1)C(=O)N[C@@H](CC(C)C)C(=O)N[C@@H](CC(=O)O)C(=O)N[C@H](C(=O)N[C@@H](CCCNC(=N)N)C(=O)N[C@@H](C)C(=O)N[C@@H](C)C(=O)N[C@@H](CCC(N)=O)C(=O)N[C@@H](CC(=O)O)C(=O)N[C@@H](Cc1ccccc1)C(=O)N[C@H](C(=O)N[C@@H](CCC(N)=O)C(=O)N[C@@H](Cc1c[nH]c2ccccc12)C(=O)N[C@@H](CC(C)C)C(=O)N[C@@H](CC(C)C)C(=O)N[C@@H](CC(=O)O)C(=O)N[C@H](C(N)=O)[C@@H](C)O)C(C)C)C(C)C)C(=O)O)C(=O)O | 0.5
0.039 | 0.034 | 0.022 | 0.009 | 2.6 | CCCCCCCCCCCCCCCC(=O)N[C@@H](CCC(=O)N[C@@H](CCC(=O)NCCCC[C@H](NC(=O)[C@H](CC(=O)O)NC(=O)[C@H](CO)NC(=O)[C@@H](NC(=O)[C@H](Cc1ccccc1)NC(=O)[C@@H](NC(=O)CNC(=O)[C@H](CCC(N)=O)NC(=O)C(C)(C)NC(=O)[C@@H](N)Cc1cnc[nH]1)[C@@H](C)O)[C@@H](C)O)C(=O)N[C@@H](CO)C(=O)N[C@@H](CCCCN)C(=O)N[C@@H](Cc1ccc(O)cc1)C(=O)N[C@@H](CC(C)C)C(=O)N[C@@H](CC(=O)O)C(=O)NC(C)(C)C(=O)N[C@@H](CCCNC(=N)N)C(=O)N[C@@H](C)C(=O)N[C@@H](C)C(=O)N[C@@H](CCC(N)=O)C(=O)N[C@@H](CC(=O)O)C(=O)N[C@@H](Cc1ccccc1)C(=O)N[C@H](C(=O)N[C@@H](CCC(N)=O)C(=O)N[C@@H](Cc1c[nH]c2ccccc12)C(=O)N[C@@H](CC(C)C)C(=O)N[C@@H](CC(C)C)C(=O)N[C@@H](CC(=O)O)C(=O)N[C@H](C(N)=O)[C@@H](C)O)C(C)C)C(=O)O)C(=O)O | 1.1
0.073 | 0.074 | 0.01 | 0.019 | 0.5 | CCCCCCCCCCCCCCCC(=O)N[C@@H](CCC(=O)N[C@@H](CCC(=O)NCCCC[C@H](NC(=O)[C@H](CC(=O)O)NC(=O)[C@H](CO)NC(=O)[C@@H](NC(=O)[C@H](Cc1ccccc1)NC(=O)[C@@H](NC(=O)CNC(=O)[C@H](CCC(N)=O)NC(=O)[C@@H](CO)NC(=O)[C@@H](N)Cc1cnc[nH]1)[C@@H](C)O)[C@@H](C)O)C(=O)N[C@@H](CO)C(=O)N[C@@H](CCCCN)C(=O)N[C@@H](Cc1ccc(O)cc1)C(=O)N[C@@H](CC(C)C)C(=O)N[C@@H](CC(=O)O)C(=O)NC(C)(C)C(=O)N[C@@H](CCCNC(=N)N)C(=O)N[C@@H](C)C(=O)N[C@@H](C)C(=O)N[C@@H](CCC(N)=O)C(=O)N[C@@H](CC(=O)O)C(=O)N[C@@H](Cc1ccccc1)C(=O)N[C@H](C(=O)N[C@@H](CCC(N)=O)C(=O)N[C@@H](Cc1c[nH]c2ccccc12)C(=O)N[C@@H](CC(C)C)C(=O)N[C@@H](CC(C)C)C(=O)N[C@@H](CC(=O)O)C(=O)N[C@H](C(N)=O)[C@@H](C)O)C(C)C)C(=O)O)C(=O)O | 1

Reference: ChEMBL document CHEMBL5126614 (ACS Med Chem Lett, 2022)
